Here are results for 29 compounds from paper PMC9250534, “Synthesis and direct assay of large macrocycle diversities by combinatorial late-stage modification at picomole scale” (Nature Communications, 2022).

The experiment has as its target MDM2 (Homo sapiens, UniProt Q00987). Briefly: MDM2 binding screen: displacement of fluorescent p53 peptide probe FP53 (fluorescence polarization). As to conditions: for fraction fluorescent probe displaced, Screen: initial screen; for fraction fluorescent probe displaced, Screen / fraction fluorescent probe displaced, Replicate: crude macrocycle reactions. The procedure: We screened Library 2 in 384-microwell plates by dispensing the target protein MDM2 and reporter peptide into the wells containing the macrocycle reactions.
The products were screened for displacement of a p53-based fluorescent peptide from human MDM2. Final macrocycle concentrations were 10 µM. For each macrocycle, the MDM2 binding was measured once.
One fluorescence anisotropy reading was taken with a Tecan Infinite F200 Pro fluorescence plate reader (excitation at 485 nm, emission at 535 nm) at 25 °C. Data was collected and exported using the Tecan Infinite M200 Pro instrument software. The data was analyzed by Excel (version 2016).
(In general: Fluorescence polarisation rises when a labelled molecule tumbles more slowly, as on binding a larger partner.)

Numbered stars: 1 amine (or outer) side, 2 acyl side, 3 side chain; on linkers, the order of the positions; unused ones are H or OH. Bridge positions count the residues as written; N and C are the ends. Square brackets hold non-standard residues; d marks the D form. Peptide text beside a SMILES is read from it. * marks the point of attachment. ξ: configuration not given here. Pro(cis-4-NH-(E)-Cinnamoyl) = O=C(/C=C/c1ccccc1)N[C@@H]1CN[C@H](C(=O)O)C1; Pro(cis-4-NHBenzoyl(4-Cl)) = O=C(N[C@@H]1CN[C@H](C(=O)O)C1)c1ccc(Cl)cc1; ξPro(4-NHCO(5-Cl-2-thienyl)) = O=C(NC1CNC(C(=O)O)C1)c1ccc(Cl)s1; 2Thenoyl(5-Cl) = O=C(c1ccc(Cl)s1)*; Benzoyl(4-Cl) = O=C(c1ccc(Cl)cc1)*; Cysteamide = C(CS[*:3])N[*:1]; X1 = O=C(/C=C/c1ccccc1)*; Api = NC1(C(=O)O)CCNCC1; Dap = NC[CH](N)C(=O)O; Mpa = O=C(O)CCS

Sequence of MDM2 (Q00987 whole entry): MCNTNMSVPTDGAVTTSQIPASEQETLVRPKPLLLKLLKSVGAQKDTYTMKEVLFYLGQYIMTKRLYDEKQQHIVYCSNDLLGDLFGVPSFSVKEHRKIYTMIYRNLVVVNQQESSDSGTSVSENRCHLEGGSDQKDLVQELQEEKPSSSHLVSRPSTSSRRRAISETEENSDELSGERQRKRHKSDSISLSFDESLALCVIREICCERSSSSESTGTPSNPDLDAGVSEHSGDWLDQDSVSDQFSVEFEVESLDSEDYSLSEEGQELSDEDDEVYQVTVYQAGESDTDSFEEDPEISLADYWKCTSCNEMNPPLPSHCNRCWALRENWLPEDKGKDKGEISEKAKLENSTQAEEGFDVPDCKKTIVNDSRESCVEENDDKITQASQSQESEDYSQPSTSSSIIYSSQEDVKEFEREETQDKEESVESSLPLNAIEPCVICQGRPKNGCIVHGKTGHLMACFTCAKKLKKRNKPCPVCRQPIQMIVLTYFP

Consider `O=C1CCSSCCNC(=O)C(Cc2c[nH]c3ccccc23)NC(=O)C2CN(C(=O)c3ccc(Cl)cc3)CCN2C(=O)CCN1` (mixture of isomers) [X B2 D7 W Acid 25], for which, under “Acid 25”, the “fraction fluorescent probe displaced, Screen” value was 0.15 and the “fraction fluorescent probe displaced, Replicate” value was determined as 0.07.

As to `O=C1CCSSCCNC(=O)C2CN(C(=O)c3ccc(Cl)cc3)CCN2C(=O)C(Cc2ccccc2)NC(=O)CCN1` (mixture of isomers) [X B2 F D7 Acid 25], where the note is “Acid 25”, the “fraction fluorescent probe displaced, Screen” value is -0.07 and the “fraction fluorescent probe displaced, Replicate” value was found to be 0.0465.

For the compound `O=C1CCSSCCNC(=O)C2CN(C(=O)c3ccc(Cl)s3)CCN2C(=O)C(Cc2c[nH]c3ccccc23)NC(=O)CCN1` (mixture of isomers) [X B2 W D7 Acid 14], for the setting “Acid 14”, the “fraction fluorescent probe displaced, Screen” value came out at 0.23 and the “fraction fluorescent probe displaced, Replicate” value stood at 0.10.

`O=C1CCSSCCNC(=O)C(Cc2ccccc2)NC(=O)C2CN(C(=O)c3ccc(Cl)s3)CCN2C(=O)c2cccc(c2)CN1` (mixture of isomers) [X B5 D7 F Acid 14]: for the setting “Acid 14”, the “fraction fluorescent probe displaced, Screen” value is listed as -0.00483 and the “fraction fluorescent probe displaced, Replicate” value amounted to 0.0465.

Take `O=C1CCSSCCNC(=O)C(Cc2ccccc2)NC(=O)C2CN(C(=O)C=Cc3ccccc3)CCN2C(=O)c2cccc(c2)CN1` (mixture of isomers) [X B5 D7 F Acid 91]: where the note is “Acid 91”, the “fraction fluorescent probe displaced, Screen” value is -0.10 and the “fraction fluorescent probe displaced, Replicate” value is given as -0.00827.

Turning to `O=C1CCSSCCNC(=O)C2CN(C(=O)c3ccc(Cl)cc3)CCN2C(=O)C(Cc2ccccc2)NC(=O)c2cccc(c2)CN1` (mixture of isomers) [X B5 F D7 Acid 25], for the setting “Acid 25”, the “fraction fluorescent probe displaced, Screen” value is given as -0.00813 and the “fraction fluorescent probe displaced, Replicate” value turned out to be 0.17.

Take `O=C1CCNC(=O)C2CN(C(=O)c3ccc(Cl)cc3)CCN2C(=O)CCSSCCNC(=O)C(Cc2ccccc2)N1` (mixture of isomers) [X D7 B2 F Acid 25]: for the setting “Acid 25”, the “fraction fluorescent probe displaced, Screen” value is -0.04 and the “fraction fluorescent probe displaced, Replicate” value worked out at 0.07.

Regarding `O=C1NC(Cc2c[nH]c3ccccc23)C(=O)NCCSSCCC(=O)N2CCN(C(=O)c3ccc(Cl)cc3)CC2C(=O)N2CCCC1C2` (mixture of isomers) [X D7 B4 W Acid 25], under “Acid 25”, the “fraction fluorescent probe displaced, Screen” value came to 0.25 and the “fraction fluorescent probe displaced, Replicate” value worked out at 0.25.

For the compound `O=C1NCCSSCCC(=O)N2CCN(C(=O)c3ccc(Cl)s3)CC2C(=O)NC(Cc2ccccc2)C(=O)NCc2cccc1c2` (mixture of isomers) [X D7 F B5 Acid 14], for the setting “Acid 14”, the “fraction fluorescent probe displaced, Screen” value turned out to be 0.11 and the “fraction fluorescent probe displaced, Replicate” value was 0.17.

In the case of `O=C1NCCSSCCC(=O)N2CCN(C(=O)c3ccc(Cl)cc3)CC2C(=O)NC(Cc2c[nH]c3ccccc23)C(=O)NCc2cccc1c2` (mixture of isomers) [X D7 W B5 Acid 25], where the note is “Acid 25”, the “fraction fluorescent probe displaced, Screen” value amounted to 0.61 and the “fraction fluorescent probe displaced, Replicate” value is recorded as 0.58.

Consider `O=C1CCSSCCNC(=O)C2CCCN2C(=O)C2CN(C(=O)C=Cc3ccccc3)CCN2C(=O)C(Cc2ccccc2)N1` (mixture of isomers) [X F D7 B1 Acid 91], for which, for the setting “Acid 91”, the “fraction fluorescent probe displaced, Screen” value is -0.0241 and the “fraction fluorescent probe displaced, Replicate” value was -0.06.

`O=C1CCSSCCNC(=O)c2cccc(c2)CNC(=O)C2CN(C(=O)c3ccc(Cl)cc3)CCN2C(=O)C(Cc2ccccc2)N1` (mixture of isomers) [X F D7 B5 Acid 25]: under “Acid 25”, the “fraction fluorescent probe displaced, Screen” value is 0.09 and the “fraction fluorescent probe displaced, Replicate” value was 0.07.

On to `O=C1CCSSCCNC(=O)C2CN(C(=O)C=Cc3ccccc3)CCN2C(=O)C2CCCN2C(=O)C(Cc2c[nH]c3ccccc23)N1` (mixture of isomers) [X W B1 D7 Acid 91], for which, where the note is “Acid 91”, the “fraction fluorescent probe displaced, Screen” value is recorded as 0.22 and the “fraction fluorescent probe displaced, Replicate” value worked out at 0.07.

For `O=C1CCSSCCNC(=O)C2CN(C(=O)c3ccc(Cl)s3)CCN2C(=O)CCNC(=O)C(Cc2c[nH]c3ccccc23)N1` (mixture of isomers) [X W B2 D7 Acid 14], under “Acid 14”, the “fraction fluorescent probe displaced, Screen” value came to 0.08 and the “fraction fluorescent probe displaced, Replicate” value is 0.17.

As for `O=C1CCSSCCNC(=O)C2CCCN2C(=O)C2CN(C(=O)C=Cc3ccccc3)CCN2C(=O)C(Cc2c[nH]c3ccccc23)N1` (mixture of isomers) [X W D7 B1 Acid 91], for the setting “Acid 91”, the “fraction fluorescent probe displaced, Screen” value is given as -0.08 and the “fraction fluorescent probe displaced, Replicate” value was 0.0168.

On to `CC(C)=CCCC(C)CC(=O)NCC1NC(=O)C2CCCN2C(=O)CCSSCCNC(=O)C(Cc2c[nH]c3ccccc23)NC1=O` (mixture of isomers) [X-B1-D3-W + A84], for which the “fraction fluorescent probe displaced” value (10 µM macrocycle concentration, crude acylated macrocycle (scaffold Mpa-AA1-AA2-AA3 x carboxylic acid), p53-based fluorescent peptide, human MDM2) worked out at 0.05085.

In the case of `O=C(NC[C@@H]1NC(=O)[C@@H]2CCCN2C(=O)CCSSCCNC(=O)[C@H](Cc2ccccc2)NC1=O)c1ccc(Cl)cc1` [X B1 D3 F Acid 25] ([Mpa]P[Dap](Benzoyl(4-Cl))F-Cysteamide; disulfide 1-C), where the note is “Acid 25”, the “fraction fluorescent probe displaced, Screen” value is reported as 0.22 and the “fraction fluorescent probe displaced, Replicate” value is on record as 0.22.

Regarding `O=C(/C=C/c1ccccc1)NC[C@@H]1NC(=O)[C@@H]2CCCN2C(=O)CCSSCCNC(=O)[C@H](Cc2ccccc2)NC1=O` [X B1 D3 F Acid 91] ([Mpa]P[Dap](X1)F-Cysteamide; disulfide 1-C), for the setting “Acid 91”, the “fraction fluorescent probe displaced, Screen” value was 0.08 and the “fraction fluorescent probe displaced, Replicate” value came out at 0.0168.

As to `O=C(NC[C@@H]1NC(=O)[C@@H]2CCCN2C(=O)CCSSCCNC(=O)[C@H](Cc2c[nH]c3ccccc23)NC1=O)c1ccc(Cl)s1` [X B1 D3 W Acid 14] ([Mpa]P[Dap](2Thenoyl(5-Cl))W-Cysteamide; disulfide 1-C), for the setting “Acid 14”, the “fraction fluorescent probe displaced, Screen” value is recorded as 0.17 and the “fraction fluorescent probe displaced, Replicate” value was found to be 0.10.

As to `O=C(NCC1NC(=O)C2CCCN2C(=O)CCSSCCNC(=O)C(Cc2c[nH]c3ccccc23)NC1=O)c1ccc(Cl)cc1` (stereo not drawn) [X B1 D3 W Acid 25] ([Mpa]P[Dap](Benzoyl(4-Cl))W-Cysteamide; disulfide 1-C; configuration not given here), for the setting “Acid 25”, the “fraction fluorescent probe displaced, Screen” value is 0.22 and the “fraction fluorescent probe displaced, Replicate” value amounted to 0.20.

Regarding `O=C(/C=C/c1ccccc1)NC[C@@H]1NC(=O)[C@@H]2CCCN2C(=O)CCSSCCNC(=O)[C@H](Cc2c[nH]c3ccccc23)NC1=O` [X B1 D3 W Acid 91] ([Mpa]P[Dap](X1)W-Cysteamide; disulfide 1-C), under “Acid 91”, the “fraction fluorescent probe displaced, Screen” value is recorded as 0.11 and the “fraction fluorescent probe displaced, Replicate” value turned out to be 0.07.

With `O=C(N[C@H]1C[C@H]2C(=O)N[C@@H](Cc3ccccc3)C(=O)NCCSSCCC(=O)N3CCC[C@H]3C(=O)N2C1)c1ccc(Cl)cc1` [X B1 D5 F Acid 25] ([Mpa]P[Pro(cis-4-NHBenzoyl(4-Cl))]F-Cysteamide; disulfide 1-C), for the setting “Acid 25”, the “fraction fluorescent probe displaced, Screen” value amounted to 0.16 and the “fraction fluorescent probe displaced, Replicate” value was determined as 0.15.

For the compound `O=C(NC1CC2C(=O)NC(Cc3c[nH]c4ccccc34)C(=O)NCCSSCCC(=O)N3CCCC3C(=O)N2C1)c1ccc(Cl)s1` (stereo not drawn) [X B1 D5 W Acid 14] ([Mpa]P[ξPro(4-NHCO(5-Cl-2-thienyl))]W-Cysteamide; disulfide 1-C; configuration not given here), for the setting “Acid 14”, the “fraction fluorescent probe displaced, Screen” value came out at 0.28 and the “fraction fluorescent probe displaced, Replicate” value stood at 0.0465.

Regarding `O=C(/C=C/c1ccccc1)N[C@H]1C[C@H]2C(=O)N[C@@H](Cc3c[nH]c4ccccc34)C(=O)NCCSSCCC(=O)N3CCC[C@H]3C(=O)N2C1` [X B1 D5 W Acid 91] ([Mpa]P[Pro(cis-4-NH-(E)-Cinnamoyl)]W-Cysteamide; disulfide 1-C), under “Acid 91”, the “fraction fluorescent probe displaced, Screen” value worked out at 0.03 and the “fraction fluorescent probe displaced, Replicate” value amounted to 0.04.

Take `O=C1NCCSSCCC(=O)N2CCC[C@H]2C(=O)NC2(CCN(C(=O)c3ccc(Cl)s3)CC2)C(=O)N[C@H]1Cc1ccccc1` [X B1 D6 F Acid 14] ([Mpa]P[Api](2Thenoyl(5-Cl))F-Cysteamide; disulfide 1-C): under “Acid 14”, the “fraction fluorescent probe displaced, Screen” value was -0.0116 and the “fraction fluorescent probe displaced, Replicate” value was found to be 0.07.

With `O=C1NCCSSCCC(=O)N2CCC[C@H]2C(=O)NC2(CCN(C(=O)/C=C/c3ccccc3)CC2)C(=O)N[C@H]1Cc1ccccc1` [X B1 D6 F Acid 91] ([Mpa]P[Api](X1)F-Cysteamide; disulfide 1-C), under “Acid 91”, the “fraction fluorescent probe displaced, Screen” value is -0.10 and the “fraction fluorescent probe displaced, Replicate” value was determined as 0.05.

Turning to `O=C1NCCSSCCC(=O)N2CCC[C@H]2C(=O)NC2(CCN(C(=O)/C=C/c3ccccc3)CC2)C(=O)N[C@H]1Cc1c[nH]c2ccccc12` [X B1 D6 W Acid 91] ([Mpa]P[Api](X1)W-Cysteamide; disulfide 1-C), where the note is “Acid 91”, the “fraction fluorescent probe displaced, Screen” value is listed as -0.08 and the “fraction fluorescent probe displaced, Replicate” value was -0.08.

In the case of `O=C1NCCSSCCC(=O)N2CCCC2C(=O)N2CCN(C(=O)c3ccc(Cl)cc3)CC2C(=O)NC1Cc1c[nH]c2ccccc12` (stereo not drawn) [X B1 D7 W Acid 25], for the setting “Acid 25”, the “fraction fluorescent probe displaced, Screen” value is 0.09 and the “fraction fluorescent probe displaced, Replicate” value is given as 0.10.

As to `O=C(NC[C@@H]1NC(=O)[C@H](Cc2ccccc2)NC(=O)[C@@H]2CCCN2C(=O)CCSSCCNC1=O)c1ccc(Cl)s1` [X B1 F D3 Acid 14] ([Mpa]PF[Dap](2Thenoyl(5-Cl))-Cysteamide; disulfide 1-C), under “Acid 14”, the “fraction fluorescent probe displaced, Screen” value came out at 0.08 and the “fraction fluorescent probe displaced, Replicate” value was found to be 0.10.
